Test results published in the NIST ThermoML archive (doi:10.1021/acs.jced.5b00098).
Numbers after ± are expanded uncertainties.

Details: Crystal; visual observation

SMILES	Normal melting temperature
COc1cc2oc(=O)cc(-c3ccccc3)c2cc1O [6-hydroxy-7-methoxy-4-phenylcoumarin]	211.50 ± 0.5 °C
O=c1cc(-c2ccccc2)c2cc(O)c(O)cc2o1 [6,7-dihydroxy-4-phenylcoumarin]	269.50 ± 0.5 °C
